# Source: patent US8143313B2, “Compositions and methods for preventing or treating an inflammatory response” (McGill University, priority 2004, dated 2012)
# Legend:
# CFTE29o- = assay: Apoptosis, in situ end labeling of DNA strand breaks, CFTR-deficient cells; assay type: cell-based, human; conditions: for apoptosis by fluorescein staining: no TNF-α
# Procedure: (§1) Adherent epithelial cell lines, CFTE29o- and 9HTEo-, grown on coated coverslips for 24 hours, were treated with fenretinide at the same concentrations used to determine IL-8 release as indicated supra. After a 24-hour incubation with fenretinide, cells were stimulated with TNF-α (experimental group) or with Cisplatin at […] (as a positive control) for an additional 24 hours. Cells were fixed in 4% paraformaldehyde in PBS at pH 7.4 for one hour at room temperature. Cells were subsequently washed and permeabilized using 0.1% TRITON™ X-100 in 0.1% citrate buffer for 2 minutes on ice. After being washed, the coverslips were individually removed from 24-well plates and cells were incubated for one hour at 37° C. with terminal deoxynucleotidyl transferase (Tdt) enzyme conjugated to fluorescein (Roche Diagnostics, Indianapolis, Ind.) for visualization. A negative slide was produced by incubating a slide of both cell lines with buffer minus the Tdt enzyme. The Tdt enzyme binds to the free hydroxyl end of DNA strand breaks. Subsequently, cells were washed twice with PBS and coverslips were placed on slides in the presence of the anti-fade medium VECTASHIELD® to facilitate fluorescence preservation. Slides were individually labeled with numbers to keep the investigator blinded to the outcome until after the slides were reviewed. Four randomly selected fields were visualized at 400× (total magnification) using a fluorescence microscopy and cells that appeared brightly flourescent were counted. Pictures were taken to estimate the number of positive to negative cells per field.
# [1] = system: normal human epithelial cells (9HTEo-); assay: Proliferation (viable cell counts) of normal human epithelial cells; assay type: cell-based; conditions: pro-inflammatory and non-inflammatory state, in particular 2.5 μM and higher
# Procedure: 9HTEo- (0.4×10^6/well in a 24-well plate) cells were incubated with 1.25 μM, 2.5 μM or 5 μM of fenretinide for 24 hours in a MEM containing 10% FBS. Vehicle control wells contained ethanol (EtOH) at concentrations equivalent to those used with fenretinide treatments.
# (§2) 9HTEo- cells were incubated with 1.25 μM, 2.5 μM or 5 μM of fenretinide for 24 hours in a MEM containing 10% FBS. After 24 hours, the medium was replaced by MEM 2% FBS containing the same concentrations of fenretinide and stimulated with TNF-α for another 24 hours.
# Treatment with Fenretinide and TNF-α. Normal and CFTR-deficient cells were treated with fenretinide (Wang, et al. (2001) Cancer Res. 61:5102-5105; Erdreich-Epstein, et al. (2002) supra) at doses known to effectively increase cellular ceramide content in cell culture. […]
# (§3) Cell viability was assessed using a 3-(4,5-dimethylthiazol-2-yl)-2,5-diphenyltetrazolium bromide (MTT) assay according to standard methods (Mosmann, T. (1983) J. Immunol. Methods. 65:55-63). […] Cells were incubated for 4 hours at 37° C., supernatant was aspirated, HCl-isopropanol solution (0.04 N HCl in isopropanol) was added, and after 5 minutes the optical densities were measured at 540 nm. […]
# [2] = system: CFTR-deficient cells (CFTE29o-); assay: IL-8 release (ELISA) by CFTR-deficient human tracheal epithelial cells; assay type: cell-based
# Procedure: (§4) General Procedures. Normal (9HTEo-) and CFTR-deficient human tracheal epithelial cells (CFTE29o- ΔF508 CFTR) were used in the analysis disclosed herein and grown in pre-coated T-75 flasks in a medium containing 10% fetal bovine serum (FBS). Cells were re-fed every 2-3 days until they reached confluency. Adherent monolayers were released from the plastic surface after treatment with trypsin-EDTA (Sigma-Aldrich Co., St. Louis, Mo.) and split into 24-well plates for about 24 hours before receiving treatments.
# (§5) Treatment with Fenretinide and TNF-α. Normal and CFTR-deficient cells were treated with fenretinide (Wang, et al. (2001) Cancer Res. 61:5102-5105; Erdreich-Epstein, et al. (2002) supra) at doses known to effectively increase cellular ceramide content in cell culture. Normal (9HTEo-; 0.4×10^6 cells/well) and CFTR-deficient human epithelial cells (CFTE29o- ΔF508 CFTR; 0.6×10^6 cells/well) were incubated for 24 hours at 37° C. in 5% CO2 with 1.25 μM, 2.5 μM or 5 μM fenretinide in Eagle's minimum essential medium (MEM) containing 10% fetal bovine serum (FBS). Subsequently, the medium was replaced with fresh MEM 2% FBS containing the same initial concentrations of fenretinide and cells were grown for an additional 24 hours to characterize the impact of fenretinide on IL-8 release in a non-inflammatory condition. To characterize the inflammatory condition, cells were treated with MEM 2% FBS containing 1.25 μM, 2.5 μM or 5 μM fenretinide and concurrently stimulated with human recombinant TNF-α (10 ng/mL) for another 24 hours. All experiments included unstimulated negative control wells.
# IL-8 Release and Cell Viability Assays. Supernatants were collected from treated cells and the amount of IL-8 released into the medium was determined using an enzyme-linked immunosorbent assay (ELISA) kit (OPTEIA™ Human IL-8 Set; BD PHARMINGEN™, San Diego, Calif.). Briefly, 96-well plates were coated overnight with capture antibody, washed with PBS, 0.05% TWEEN®-20 and coated with PBS, 10% heat-inactivated FBS. Known concentrations of IL-8 (standard) and supernatants containing released IL-8 were added as aliquots into appropriate wells, incubated for 2 hours and subsequently decanted from the wells. Enzyme-conjugated anti-IL-8 antibody was added and incubated for 1 hour. After washing the plate, a substrate for the enzyme was added and the plate incubated for 30 minutes. The reaction was stopped using a 2NH2SO4 solution and the absorbance was read at 450 nm.
# Pseudomonas aeruginosa = assay: Pulmonary infection of CFTR knockout and wild-type mice with P. aeruginosa; assay type: in vivo, mouse
# From the text: Homogenous C57BL/6 Cftr^unc knockout mice generated by insertion of a stop codon in exon 10 of Cftr gene are well-known in the art (Snouwaert, et al. (1992) Science 257:1083-8; Gosselin, et al. (1998) Am. J. Respir. Crit. Care Med. 157:1253-62). Mice used in these studies represent offsprings from B6-Cftr^unc (+/−) mice backcrossed to C57BL/6 mice for 10 to 12 generations.
# Housing Conditions. B6-Cftr (−/−) and B6-Cftr (+/+) mice were housed on corn cob bedding (Anderson, Maumee, Ohio) and fed sterile PEPTAMEN® (Clintec Nutrition, Deerfield, Ill.), a low-residue liquid diet which was previously shown to prevent intestinal obstruction in Cftr^unc knockout mice (Eckman, et al. (1995) Am. J. Physiol. 269:L625-L630). A standard diet was used (Gosselin, et al. (1998) supra), wherein the caloric content of the diet was 420 KJ/100 mL and an adult mouse consumes approximately 15 mL/day. In order to maintain the sterility of the diet, it was changed daily. For one month prior to pulmonary infection with P. aeruginosa, mice were provided fenretinide (prepared in PEPTAMEN®) in the drinking water at 5 mg/kg body weight. The dose was set for each individual mouse based on its weight and adjusted every week (e.g., 147 μg/mouse/day for 30 gram mouse).
# Infection of Mice. […] The number of viable P. aeruginosa entrapped in agar beads was determined by plating serial dilutions of the homogenized bead suspension on TSA plates. […]
# Bronchoalveolar Lavages (BAL). […] Alveolar cells were centrifuged, resuspended in 1 mL PBS, stained with Turk's solution and counted. The proportions of macrophages, lymphocytes, and polymorphonuclear leukocytes (PMN) were calculated after counting 200 alveolar cells on cytospin preparations stained with DIFF-QUICK® (American Scientific Products, McGaw Park, Ill.).
# Measurement of Bacterial Burden. […] Serial 10-fold dilutions of homogenates were plated on petri dishes containing TSA and the number of colony-forming units (CFU) per organs was counted after overnight incubation at 37° C. […]
# [3] = oral, once a day, 28-day courses, cited from earlier work
# [4] = system: CFTR-deficient human epithelial cells (CFTE29o-); assay: Proliferation (viable cell counts) of CFTR-deficient human epithelial cells; assay type: cell-based
# Procedure: CFTE29o- (0.6×10^6/well in a 24-well plate) cells were incubated with 1.25 μM, 2.5 μM or 5 μM of fenretinide for 24 hours in a MEM containing 10% FBS. Vehicle control wells contained ethanol (EtOH) at concentrations equivalent to those used with fenretinide treatments.
# as §2, with “CFTE29o-” for “9HTEo-”, “hours. Viable cell counts were determined.” for “hours.”
# as §5, §3
# normal cells (9HTEo-) = assay: IL-8 release (ELISA) by normal human tracheal epithelial cells; assay type: cell-based
# Procedure: as §4, §5
# IL-8 Release and Cell Viability Assays. Supernatants were collected from treated cells and the amount of IL-8 released into the medium was determined using an enzyme-linked immunosorbent assay (ELISA) kit (OPTEIA™ Human IL-8 Set; BD PHARMINGEN™, San Diego, Calif.). Briefly, 96-well plates were coated overnight with capture antibody, washed with PBS, 0.05% TWEEN®-20 and coated with PBS, 10% heat-inactivated FBS. […] The reaction was stopped using a 2NH2SO4 solution and the absorbance was read at 450 nm.
# 9HTEo- = assay: Apoptosis, in situ end labeling of DNA strand breaks, non-cystic fibrosis cells; assay type: cell-based, human; conditions: for apoptosis by fluorescein staining: no TNF-α
# Procedure: as §1
# [5] = CFTR-deficient and wild-type mice, 5 mg/kg for one month before challenge, 3 days post-infection
compound,measurement,setting,value
N.N.[Cl][Pt][Cl] [cisplatin],apoptotic effect of positive control,"CFTE29o-; CFTR-deficient epithelial cells, as opposed to non-cystic fibrosis cells",resistant to the apoptotic effects
"CC1=C(/C=C/C(C)=C/C=C/C(C)=C/C(=O)Nc2ccc(O)cc2)C(C)(C)CCC1 [fenretinide, all-trans-N-(4-hydroxyphenyl)retinamide]",cell proliferation,[1],significant decrease in cell proliferation
same,"IL-8 level as % of the TNF-α-stimulated value, dose-dependent reduction","[2]; CFTE29o-, TNF-α 10 ng/mL, fenretinide 1.25-5 μM, greatest reduction",70%
same,threshold level for significance of IL-8 reduction,"[2]; CFTE29o-, TNF-α-stimulated",2.5 µM
same,activity at 1.25 µM,"[2]; Homo sapiens, Epithelial cell, CFTE29o-, TNF-α 10 ng/mL, 1.25 μM fenretinide, not significantly different from control, read-out: IL-8 level as % of control (TNF-α only)",86%
same,increase of IL-8 levels in the absence of TNF-α stimulation,"[2]; cystic fibrosis cells, no TNF-α, fenretinide 1.25-5 μM, dose-dependent",2- to 8 fold
same,apoptosis in the presence of TNF-α,"CFTE29o-; CFTR-deficient cells, TNF-α, 1.25 and 2.5 μM",no enhancement of apoptosis
same,apoptosis by fluorescein staining,"CFTE29o-; CFTR-deficient cells, 1.25 μM","no morphology of apoptosis, weak fluorescence was observed"
same,apoptosis by fluorescein staining,"CFTE29o-; CFTR-deficient cells, 2.5 μM",early stage apoptosis
same,bacterial burden in lungs,Pseudomonas aeruginosa; [5],reduced
same,recruitment of inflammatory cells to the lungs,Pseudomonas aeruginosa; [5],decrease in the recruitment of inflammatory cells
same,reduction in P. aeruginosa cell numbers as compared to controls,Pseudomonas aeruginosa; cystic fibrosis mice pretreated with fenretinide,approximately 40%
same,subjects with side effects,[3]; subjects 2-21 years with neuroblastoma,15 of the 45
same,time to reversal of side effects after discontinuation of treatment,[3],≤ 7 days
same,cell numbers,"[4]; CFTR-deficient cells, non-inflammatory condition, 2.5 μM",decrease in CFTR-deficient epithelial cell numbers
same,cell proliferation,"[4]; CFTR-deficient cells, pro-inflammatory and non-inflammatory state, in particular 2.5 μM and higher",significant decrease in cell proliferation
same,cell numbers,"[4]; cystic fibrosis cells, 1.25 μM",did not show a decrease in cell numbers
same,IL-8 maximum level as % of that secreted by TNF-α-stimulated cells,"normal cells (9HTEo-); 9HTEo-, TNF-α 10 ng/mL, fenretinide 1.25-5 μM",139%
same,threshold level of IL-8 enhancement,"normal cells (9HTEo-); 9HTEo-, TNF-α-stimulated",2.5 µM
same,enhancement in basal IL-8 release,"normal cells (9HTEo-); non-cystic fibrosis cells, no TNF-α, all treatment doses",greater than 14 fold
same,apoptosis in the presence of TNF-α,"9HTEo-; TNF-α, both doses (1.25 and 2.5 μM)",significant apoptosis
same,apoptosis by fluorescein staining,9HTEo-; 1.25 μM,weaker fluorescence and an earlier stage of apoptosis
same,apoptosis by fluorescein staining,9HTEo-; 2.5 μM,strong fluorescence and classic apoptotic morphology
